In the NIST ThermoML archive (doi:10.1016/j.jct.2012.06.012):

Assay: xn = mol fraction of the nth substance listed
Conditions: Liquid, Vibrating tube method

CCCCCCCCCC [decane] + CCO
Conditions	mass density [kg/m3]
323 K, 1000 kPa, x2 = 0.1011	707.24
323 K, 2000 kPa, x2 = 0.1011	708.19
323 K, 3000 kPa, x2 = 0.1011	709.13
323 K, 4000 kPa, x2 = 0.1011	710.05
323 K, 5000 kPa, x2 = 0.1011	710.96
323 K, 6000 kPa, x2 = 0.1011	711.86
323 K, 7000 kPa, x2 = 0.1011	712.75
323 K, 8000 kPa, x2 = 0.1011	713.62
323 K, 9000 kPa, x2 = 0.1011	714.5
323 K, 10000 kPa, x2 = 0.1011	715.37
323 K, 11000 kPa, x2 = 0.1011	716.23
323 K, 12000 kPa, x2 = 0.1011	717.09
323 K, 13000 kPa, x2 = 0.1011	717.94
323 K, 14000 kPa, x2 = 0.1011	718.79
323 K, 15000 kPa, x2 = 0.1011	719.61
323 K, 16000 kPa, x2 = 0.1011	720.42
323 K, 17000 kPa, x2 = 0.1011	721.22
323 K, 18000 kPa, x2 = 0.1011	722.01
323 K, 19000 kPa, x2 = 0.1011	722.76
323 K, 20000 kPa, x2 = 0.1011	723.51
323.03 K, 1000 kPa, x2 = 0.7526	729.67
323.03 K, 2000 kPa, x2 = 0.7526	730.66
323.03 K, 3000 kPa, x2 = 0.7526	731.64
323.03 K, 4000 kPa, x2 = 0.7526	732.61
323.03 K, 5000 kPa, x2 = 0.7526	733.56
323.03 K, 6000 kPa, x2 = 0.7526	734.49
323.03 K, 7000 kPa, x2 = 0.7526	735.43
323.03 K, 8000 kPa, x2 = 0.7526	736.37
323.03 K, 9000 kPa, x2 = 0.7526	737.3
323.03 K, 10000 kPa, x2 = 0.7526	738.24
323.03 K, 11000 kPa, x2 = 0.7526	739.17
323.03 K, 12000 kPa, x2 = 0.7526	740.08
323.03 K, 13000 kPa, x2 = 0.7526	741
323.03 K, 14000 kPa, x2 = 0.7526	741.9
323.03 K, 15000 kPa, x2 = 0.7526	742.78
323.03 K, 16000 kPa, x2 = 0.7526	743.66
323.03 K, 17000 kPa, x2 = 0.7526	744.51
323.03 K, 18000 kPa, x2 = 0.7526	745.35
323.03 K, 19000 kPa, x2 = 0.7526	746.18
323.03 K, 20000 kPa, x2 = 0.7526	746.98
323.06 K, 1000 kPa, x2 = 0.2507	709.58
323.06 K, 2000 kPa, x2 = 0.2507	710.54
323.06 K, 3000 kPa, x2 = 0.2507	711.48
323.06 K, 4000 kPa, x2 = 0.2507	712.41
323.06 K, 5000 kPa, x2 = 0.2507	713.33
323.06 K, 6000 kPa, x2 = 0.2507	714.23
323.06 K, 7000 kPa, x2 = 0.2507	715.12
323.06 K, 8000 kPa, x2 = 0.2507	716.01
323.06 K, 9000 kPa, x2 = 0.2507	716.9
323.06 K, 10000 kPa, x2 = 0.2507	717.78
323.06 K, 11000 kPa, x2 = 0.2507	718.65
323.06 K, 12000 kPa, x2 = 0.2507	719.53
323.06 K, 13000 kPa, x2 = 0.2507	720.39
323.06 K, 14000 kPa, x2 = 0.2507	721.24
323.06 K, 15000 kPa, x2 = 0.2507	722.08
323.06 K, 16000 kPa, x2 = 0.2507	722.91
323.06 K, 17000 kPa, x2 = 0.2507	723.72
323.06 K, 18000 kPa, x2 = 0.2507	724.51
323.06 K, 19000 kPa, x2 = 0.2507	725.28
323.06 K, 20000 kPa, x2 = 0.2507	726.04
332.86 K, 1000 kPa, x2 = 0.0937	699.25
332.86 K, 1000 kPa, x2 = 0.9014	736.03
332.86 K, 2000 kPa, x2 = 0.0937	700.26
332.86 K, 2000 kPa, x2 = 0.9014	737.11
332.86 K, 3000 kPa, x2 = 0.0937	701.26
332.86 K, 3000 kPa, x2 = 0.9014	738.18
332.86 K, 4000 kPa, x2 = 0.0937	702.24
332.86 K, 4000 kPa, x2 = 0.9014	739.22
332.86 K, 5000 kPa, x2 = 0.0937	703.21
332.86 K, 5000 kPa, x2 = 0.9014	740.19
332.86 K, 6000 kPa, x2 = 0.0937	704.16
332.86 K, 6000 kPa, x2 = 0.9014	741.29
332.86 K, 7000 kPa, x2 = 0.0937	705.1
332.86 K, 7000 kPa, x2 = 0.9014	742.31
332.86 K, 8000 kPa, x2 = 0.0937	706.03
332.86 K, 8000 kPa, x2 = 0.9014	743.33
332.86 K, 9000 kPa, x2 = 0.0937	706.94
332.86 K, 9000 kPa, x2 = 0.9014	744.36
332.86 K, 10000 kPa, x2 = 0.0937	707.85
332.86 K, 10000 kPa, x2 = 0.9014	745.34
332.86 K, 11000 kPa, x2 = 0.0937	708.77
332.86 K, 11000 kPa, x2 = 0.9014	746.35
332.86 K, 12000 kPa, x2 = 0.0937	709.67
332.86 K, 12000 kPa, x2 = 0.9014	747.33
332.86 K, 13000 kPa, x2 = 0.0937	710.57
332.86 K, 13000 kPa, x2 = 0.9014	748.31
332.86 K, 14000 kPa, x2 = 0.0937	711.45
332.86 K, 14000 kPa, x2 = 0.9014	749.26
332.86 K, 15000 kPa, x2 = 0.0937	712.31
332.86 K, 15000 kPa, x2 = 0.9014	750.21
332.86 K, 16000 kPa, x2 = 0.0937	713.17
332.86 K, 16000 kPa, x2 = 0.9014	751.15
332.86 K, 17000 kPa, x2 = 0.0937	714.01
332.86 K, 17000 kPa, x2 = 0.9014	752.07
332.86 K, 18000 kPa, x2 = 0.0937	714.82
332.86 K, 18000 kPa, x2 = 0.9014	752.96
332.86 K, 19000 kPa, x2 = 0.0937	715.64
332.86 K, 19000 kPa, x2 = 0.9014	753.84
332.86 K, 20000 kPa, x2 = 0.0937	716.42
332.86 K, 20000 kPa, x2 = 0.9014	754.71
332.87 K, 1000 kPa, x2 = 0.1011	699.31
332.87 K, 1000 kPa, x2 = 0.4963	707.52
332.87 K, 2000 kPa, x2 = 0.1011	700.32
332.87 K, 2000 kPa, x2 = 0.4963	708.54
332.87 K, 3000 kPa, x2 = 0.1011	701.31
332.87 K, 3000 kPa, x2 = 0.4963	709.55
332.87 K, 4000 kPa, x2 = 0.1011	702.29
332.87 K, 4000 kPa, x2 = 0.4963	710.55
332.87 K, 5000 kPa, x2 = 0.1011	703.26
332.87 K, 5000 kPa, x2 = 0.4963	711.53
332.87 K, 6000 kPa, x2 = 0.1011	704.21
332.87 K, 6000 kPa, x2 = 0.4963	712.5
332.87 K, 7000 kPa, x2 = 0.1011	705.15
332.87 K, 7000 kPa, x2 = 0.4963	713.48
332.87 K, 8000 kPa, x2 = 0.1011	706.08
332.87 K, 8000 kPa, x2 = 0.4963	714.46
332.87 K, 9000 kPa, x2 = 0.1011	707
332.87 K, 9000 kPa, x2 = 0.4963	715.43
332.87 K, 10000 kPa, x2 = 0.1011	707.91
332.87 K, 10000 kPa, x2 = 0.4963	716.38
332.87 K, 11000 kPa, x2 = 0.1011	708.83
332.87 K, 11000 kPa, x2 = 0.4963	717.33
332.87 K, 12000 kPa, x2 = 0.1011	709.73
332.87 K, 12000 kPa, x2 = 0.4963	718.27
332.87 K, 13000 kPa, x2 = 0.1011	710.62
332.87 K, 13000 kPa, x2 = 0.4963	719.21
332.87 K, 14000 kPa, x2 = 0.1011	711.51
332.87 K, 14000 kPa, x2 = 0.4963	720.13
332.87 K, 15000 kPa, x2 = 0.1011	712.38
332.87 K, 15000 kPa, x2 = 0.4963	721.03
332.87 K, 16000 kPa, x2 = 0.1011	713.23
332.87 K, 16000 kPa, x2 = 0.4963	721.92
332.87 K, 17000 kPa, x2 = 0.1011	714.07
332.87 K, 17000 kPa, x2 = 0.4963	722.8
332.87 K, 18000 kPa, x2 = 0.1011	714.88
332.87 K, 18000 kPa, x2 = 0.4963	723.66
332.87 K, 19000 kPa, x2 = 0.1011	715.69
332.87 K, 19000 kPa, x2 = 0.4963	724.5
332.87 K, 20000 kPa, x2 = 0.1011	716.47
332.87 K, 20000 kPa, x2 = 0.4963	725.32
332.91 K, 1000 kPa, x2 = 0.7526	720.88
332.91 K, 2000 kPa, x2 = 0.7526	721.93
332.91 K, 3000 kPa, x2 = 0.7526	722.96
332.91 K, 4000 kPa, x2 = 0.7526	723.98
332.91 K, 5000 kPa, x2 = 0.7526	725
332.91 K, 6000 kPa, x2 = 0.7526	726.01
332.91 K, 7000 kPa, x2 = 0.7526	727.02
332.91 K, 8000 kPa, x2 = 0.7526	728.03
332.91 K, 9000 kPa, x2 = 0.7526	729.03
332.91 K, 10000 kPa, x2 = 0.7526	729.99
332.91 K, 11000 kPa, x2 = 0.7526	730.98
332.91 K, 12000 kPa, x2 = 0.7526	731.94
332.91 K, 13000 kPa, x2 = 0.7526	732.91
332.91 K, 14000 kPa, x2 = 0.7526	733.85
332.91 K, 15000 kPa, x2 = 0.7526	734.78
332.91 K, 16000 kPa, x2 = 0.7526	735.69
332.91 K, 17000 kPa, x2 = 0.7526	736.6
332.91 K, 18000 kPa, x2 = 0.7526	737.48
332.91 K, 19000 kPa, x2 = 0.7526	738.35
332.91 K, 20000 kPa, x2 = 0.7526	739.19
332.97 K, 1000 kPa, x2 = 0.2507	701.45
332.97 K, 2000 kPa, x2 = 0.2507	702.46
332.97 K, 3000 kPa, x2 = 0.2507	703.46
332.97 K, 4000 kPa, x2 = 0.2507	704.44
332.97 K, 5000 kPa, x2 = 0.2507	705.41
332.97 K, 6000 kPa, x2 = 0.2507	706.36
332.97 K, 7000 kPa, x2 = 0.2507	707.31
332.97 K, 8000 kPa, x2 = 0.2507	708.26
332.97 K, 9000 kPa, x2 = 0.2507	709.21
332.97 K, 10000 kPa, x2 = 0.2507	710.12
332.97 K, 11000 kPa, x2 = 0.2507	711.06
332.97 K, 12000 kPa, x2 = 0.2507	711.97
332.97 K, 13000 kPa, x2 = 0.2507	712.88
332.97 K, 14000 kPa, x2 = 0.2507	713.78
332.97 K, 15000 kPa, x2 = 0.2507	714.65
332.97 K, 16000 kPa, x2 = 0.2507	715.53
332.97 K, 17000 kPa, x2 = 0.2507	716.38
332.97 K, 18000 kPa, x2 = 0.2507	717.21
332.97 K, 19000 kPa, x2 = 0.2507	718.03
332.97 K, 20000 kPa, x2 = 0.2507	718.82
